Test results: patent publication US20230085307A1, “PYRIDAZINONE COMPOUND AND HERBICIDE” (NISSAN CHEMICAL CORPORATION, priority 2019, published 2023)

Legend:
[1] = system: late watergrass; experiment: Test Example 1: herbicidal activity, application before weed generation under submerged conditions (Table 16, symbol A); type: in vivo, late watergrass (Echinochloa oryzicola); settings: amount of applied herbicide 320 g/ha
Summary of the method: (§1)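 Alluvial soil was flooded to 4 cm depth, weed seeds were sown mixed and 2.5-leaf rice seedlings were transplanted. On sowing day, the compound's emulsion, diluted in water to a set dose, was applied to the water surface. Plants grew at 25–30 °C and were scored 0–5 after three weeks.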

[2] = system: oval-leafed pondweed; experiment: Test Example 1: herbicidal activity, application before weed generation under submerged conditions (Table 16, symbol C); type: in vivo, oval-leafed pondweed (Monochoria vaginalis); settings: amount of applied herbicide 320 g/ha
Summary of the method: as §1

[3] = system: barnyard grass; experiment: Test Example 3: herbicidal effect by foliage application, Wagner pot (Table 18, symbol H); type: in vivo, barnyard grass (Echinochloa crus-galli); settings: amount of applied herbicide 320 g/ha
Summary of the method: (§2)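 Plants were sown in alluvial soil held under 0.1–0.5 cm standing water and grown 14 days in a greenhouse at 25–30 °C. An emulsifiable formulation, water-diluted to the set dose, was then sprayed onto the foliage, and effects were scored three weeks later using previously defined criteria.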

[4] = system: Chinese sprangletop; experiment: Test Example 3: herbicidal effect by foliage application, Wagner pot (Table 18, symbol D); type: in vivo, chinese sprangletop (Leptochloa chinensis); settings: amount of applied herbicide 320 g/ha
Summary of the method: as §2

[5] = system: barnyard grass; experiment: Test Example 4: herbicidal effect by soil treatment (Table 19, symbol H); type: in vivo, barnyard grass (Echinochloa crus-galli); settings: amount of applied herbicide 320 g/ha
Summary of the method: (§3)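 Emulsion of test compound, water-diluted to predetermined amount, sprayed on soil after sowing (seed depth ~1.5 cm, sterilized diluvial soil). Greenhouse, 25–30° C. Effect graded at three weeks post-spray.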

[6] = system: Italian ryegrass; experiment: Test Example 4: herbicidal effect by soil treatment (Table 19, symbol K); type: in vivo, Italian ryegrass (Lolium multiflorum); settings: amount of applied herbicide 320 g/ha
Summary of the method: as §3

[7] = system: windgrass; experiment: Test Example 4: herbicidal effect by soil treatment (Table 19, symbol L); type: in vivo, windgrass (Apera spica-venti); settings: amount of applied herbicide 320 g/ha
Summary of the method: as §3

[8] = system: lambsquarters; experiment: Test Example 4: herbicidal effect by soil treatment (Table 19, symbol O); type: in vivo, lambsquarters (Chenopodium album); settings: amount of applied herbicide 320 g/ha
Summary of the method: as §3

[9] = system: persian speedwell; experiment: Test Example 4: herbicidal effect by soil treatment (Table 19, symbol R); type: in vivo, Persian speedwell (Veronica persica); settings: amount of applied herbicide 320 g/ha
Summary of the method: as §3

[10] = system: southern crabgrass; experiment: Test Example 5: herbicidal effect by foliage application, plastic box (Table 20, symbol F); type: in vivo, southern crabgrass (Digitaria ciliaris); settings: foliage application, 320 g/ha; for herbicidal effect on southern crabgrass (F): three weeks after application
Summary of the method: (§4)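 Post-emergence foliar test in sterilized diluvial soil. Compound applied as water-diluted emulsion at a predetermined rate to 14-day-old plants; evaluation at three weeks.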

[11] = system: green foxtail; experiment: Test Example 5: herbicidal effect by foliage application, plastic box (Table 20, symbol G); type: in vivo, green foxtail (Setaria viridis); settings: foliage application, 320 g/ha; for herbicidal effect on green foxtail (G): three weeks after application
Summary of the method: as §4

[12] = system: Italian ryegrass; experiment: Test Example 5: herbicidal effect by foliage application, plastic box (Table 20, symbol K); type: in vivo, Italian ryegrass (Lolium multiflorum); settings: foliage application, 320 g/ha; for herbicidal effect on Italian ryegrass (K): three weeks after application
Summary of the method: as §4

[13] = system: windgrass; experiment: Test Example 5: herbicidal effect by foliage application, plastic box (Table 20, symbol L); type: in vivo, windgrass (Apera spica-venti); settings: foliage application, 320 g/ha; for herbicidal effect on windgrass (L): three weeks after application
Summary of the method: as §4

[14] = system: velvetleaf; experiment: Test Example 5: herbicidal effect by foliage application, plastic box (Table 20, symbol M); type: in vivo, velvetleaf (Abutilon theophrasti); settings: foliage application, 320 g/ha; for herbicidal effect on velvetleaf (M): three weeks after application
Summary of the method: as §4

[15] = system: lambsquarters; experiment: Test Example 5: herbicidal effect by foliage application, plastic box (Table 20, symbol O); type: in vivo, lambsquarters (Chenopodium album); settings: foliage application, 320 g/ha; for herbicidal effect on lambsquarters (O): three weeks after application
Summary of the method: as §4

[16] = system: persian speedwell; experiment: Test Example 5: herbicidal effect by foliage application, plastic box (Table 20, symbol R); type: in vivo, Persian speedwell (Veronica persica); settings: foliage application, 320 g/ha; for herbicidal effect on persian speedwell (R): three weeks after application
Summary of the method: as §4

[17] = evaluated 3 weeks after application

| Compound | Herbicidal effect, A: late watergrass [1] | Herbicidal effect, C: oval-leafed pondweed [2] | Herbicidal effect on H (barnyard grass), foliage application [3] | Herbicidal effect on D (Chinese sprangletop), foliage application [4] | H: barnyard grass, herbicidal effect grade [5] | K: Italian ryegrass, herbicidal effect grade [6] | L: windgrass, herbicidal effect grade [7] | O: lambsquarters, herbicidal effect grade [8] | R: persian speedwell, herbicidal effect grade [9] | herbicidal effect on southern crabgrass (F) [10] | herbicidal effect on green foxtail (G) [11] | herbicidal effect on Italian ryegrass (K) [12] | herbicidal effect on windgrass (L) [13] | herbicidal effect on velvetleaf (M) [14] | herbicidal effect on lambsquarters (O) [15] | herbicidal effect on persian speedwell (R) [16] | further results |
| --- | --- | --- | --- | --- | --- | --- | --- | --- | --- | --- | --- | --- | --- | --- | --- | --- | --- |
| CCOc1ccccc1-c1sc2c(Cl)c(OCC)ccc2c1-c1c(O)c(C)nn(C)c1=O [7-004] | 3 (Herbicidal rate of 40% or more and less than 70%) | 0 (Herbicidal rate of 5% or less (almost no effect)) | 5 (Herbicidal rate of 90% or more (almost completely withered)) | 5 (Herbicidal rate of 90% or more (almost completely withered)) | 3 (Herbicidal rate of 40% or more and less than 70%) | 4 (Herbicidal rate of 70% or more and less than 90%) | 0 (Herbicidal rate of 5% or less (almost no effect)) | 4 (Herbicidal rate of 70% or more and less than 90%) | 5 (Herbicidal rate of 90% or more (almost completely withered)) | 5 (Herbicidal rate of 90% or more (almost completely withered)) | 5 (Herbicidal rate of 90% or more (almost completely withered)) | 4 (Herbicidal rate of 70% or more and less than 90%) | 0 (Herbicidal rate of 5% or less (almost no effect)) | 4 (Herbicidal rate of 70% or more and less than 90%) | 4 (Herbicidal rate of 70% or more and less than 90%) | 5 (Herbicidal rate of 90% or more (almost completely withered)) |  |
| Cc1nn(C)c(=O)c(-c2c(-c3ccc(OCC(F)(F)F)cc3)oc3ccccc23)c1O [8-005] | 5 (Herbicidal rate of 90% or more (almost completely withered)) | 4 (Herbicidal rate of 70% or more and less than 90%) | 5 (Herbicidal rate of 90% or more (almost completely withered)) | 4 (Herbicidal rate of 70% or more and less than 90%) | 5 (Herbicidal rate of 90% or more (almost completely withered)) | 5 (Herbicidal rate of 90% or more (almost completely withered)) | 0 (Herbicidal rate of 5% or less (almost no effect)) | 4 (Herbicidal rate of 70% or more and less than 90%) | 4 (Herbicidal rate of 70% or more and less than 90%) | 5 (Herbicidal rate of 90% or more (almost completely withered)) | 5 (Herbicidal rate of 90% or more (almost completely withered)) | 5 (Herbicidal rate of 90% or more (almost completely withered)) | 3 (Herbicidal rate of 40% or more and less than 70%) | 5 (Herbicidal rate of 90% or more (almost completely withered)) | 5 (Herbicidal rate of 90% or more (almost completely withered)) | 5 (Herbicidal rate of 90% or more (almost completely withered)) |  |
| CSCCOc1ccc(-c2oc3ccccc3c2-c2c(O)c(C)nn(C)c2=O)cc1 [8-008] | 5 (Herbicidal rate of 90% or more (almost completely withered)) | 4 (Herbicidal rate of 70% or more and less than 90%) | 5 (Herbicidal rate of 90% or more (almost completely withered)) | 4 (Herbicidal rate of 70% or more and less than 90%) | 5 (Herbicidal rate of 90% or more (almost completely withered)) | 4 (Herbicidal rate of 70% or more and less than 90%) | 0 (Herbicidal rate of 5% or less (almost no effect)) | 4 (Herbicidal rate of 70% or more and less than 90%) | 5 (Herbicidal rate of 90% or more (almost completely withered)) | 5 (Herbicidal rate of 90% or more (almost completely withered)) | 5 (Herbicidal rate of 90% or more (almost completely withered)) | 5 (Herbicidal rate of 90% or more (almost completely withered)) | 4 (Herbicidal rate of 70% or more and less than 90%) | 5 (Herbicidal rate of 90% or more (almost completely withered)) | 3 (Herbicidal rate of 40% or more and less than 70%) | 5 (Herbicidal rate of 90% or more (almost completely withered)) |  |
| Cc1ccc2oc(-c3ccc(SC(C)C)cc3)c(-c3c(O)c(C)nn(C)c3=O)c2c1 [9-059] | 5 (Herbicidal rate of 90% or more (almost completely withered)) | 3 (Herbicidal rate of 40% or more and less than 70%) | 5 (Herbicidal rate of 90% or more (almost completely withered)) | 3 (Herbicidal rate of 40% or more and less than 70%) | 1 (Herbicidal rate of 5% or more and less than 20%) | 4 (Herbicidal rate of 70% or more and less than 90%) | 0 (Herbicidal rate of 5% or less (almost no effect)) | 5 (Herbicidal rate of 90% or more (almost completely withered)) | 5 (Herbicidal rate of 90% or more (almost completely withered)) |  |  |  |  |  |  |  | F (southern crabgrass) herbicidal effect grade [10, 17]: 2 (Herbicidal rate of 20% or more and less than 40%); G (green foxtail) herbicidal effect grade [11, 17]: 5 (Herbicidal rate of 90% or more (almost completely withered)); K (Italian ryegrass) herbicidal effect grade [12, 17]: 5 (Herbicidal rate of 90% or more (almost completely withered)); L (windgrass) herbicidal effect grade [13, 17]: 1 (Herbicidal rate of 5% or more and less than 20%); M (velvetleaf) herbicidal effect grade [14, 17]: 5 (Herbicidal rate of 90% or more (almost completely withered)); O (lambsquarters) herbicidal effect grade [15, 17]: 5 (Herbicidal rate of 90% or more (almost completely withered)); R (persian speedwell) herbicidal effect grade [16, 17]: 5 (Herbicidal rate of 90% or more (almost completely withered)) |
| COc1ccccc1-c1sc2c(Cl)c(OC)ccc2c1-c1c(O)c(C)nn(C)c1=O [Compound No. 7-001, 4-(7-chloro-6-methoxy-2-(2-methoxyphenyl)benzo[b]thiophen-3-yl)-5-hydroxy-2,6-dimeth ylpyridazin-3-(2H)-one] | 3 (Herbicidal rate of 40% or more and less than 70%) | 2 (Herbicidal rate of 20% or more and less than 40%) | 5 (Herbicidal rate of 90% or more (almost completely withered)) | 1 (Herbicidal rate of 5% or more and less than 20%) | 3 (Herbicidal rate of 40% or more and less than 70%) | 3 (Herbicidal rate of 40% or more and less than 70%) | 0 (Herbicidal rate of 5% or less (almost no effect)) | 5 (Herbicidal rate of 90% or more (almost completely withered)) | 5 (Herbicidal rate of 90% or more (almost completely withered)) | 0 (Herbicidal rate of 5% or less (almost no effect)) | 4 (Herbicidal rate of 70% or more and less than 90%) | 5 (Herbicidal rate of 90% or more (almost completely withered)) | 5 (Herbicidal rate of 90% or more (almost completely withered)) | 5 (Herbicidal rate of 90% or more (almost completely withered)) | 4 (Herbicidal rate of 70% or more and less than 90%) | 5 (Herbicidal rate of 90% or more (almost completely withered)) |  |
